Laboratory results from patent US12611406B2, “Oxopiperazine derivatives for the treatment of cancer” (Inthera Bioscience AG, priority 2020, dated 2026).

How the values were obtained:
AR = assay: AR-driven gene expression in LNCaP cells stimulated with DHT; assay type: cell-based; details: PSA (KLK3), TMPRSS2, SLC45A3; DHT induction; 30, 300, 3000 nM
Description: Compound 1 concentrations from left to right: 30, 300, 3000 nM. Basal level indicates expression level in cells with no DHT treatment.
In SCLC, the expression of p300 and CBP is associated with poor prognosis (see Gao et al, Int J Clin Exp Pathol. 2014 Jan. 15; 7(2):760-7) with high p300 and CBP expressions being independent prognostic markers of poor overall survival (OS) for resected SCLC patients.

A549 NSCLC cells = assay: Cell cycle FACS analysis; assay type: cell-based; details: A549, wild-type Rb and p53; 20 or 200 nM, 24 h
Description: Cell cycle phase distribution in control (C) cells or cells treated at 20 or 200 nM Compound 1 for 24 hours (24 h) determined by fluorescence activated cell sorting (FACS) analysis, and detection of histone H2A variant H2A.X phosphorylation (γH2A.X, also referred to herein as gamma H2A.X or γH2A.X) by Western blot as DNA damage biomarker.
In FIG. 3A, protein amounts were normalized using total protein load with ImageLab 6.0 Software (BioRad).

[1] = 5-day daily oral repeated-dose pilot study in Beagle dogs (mesylate salt); assay type: in vivo; details: for Tmax / Cmax / half-life: both sexes, Beagle, dog, plasma, po
Description: The objective of the study was to determine the TK profile of Compound 1, following its daily administration through oral gavage for 5 consecutive days to Beagle dogs. Compound 1 (mesylate salt) was administered daily to groups of dogs (n=2/sex/group) by oral gavage (PO) for 5 consecutive days at doses of 1.5 and 2 mg/kg/day. The vehicle was 0.5% (w/v) methylcellulose in sterile water. For TK evaluation blood samples were collected from each dog on Days 1 and 5 at the following timepoints relative to dosing: pre-dose, 15 min, 30 min, as well as 1, 2, 4, 6, 8, 12, and 24 hours post-dose.

DU-145 = DU-145 CDX mouse model; assay type: in vivo; details: once weekly 60 mg/kg/day as 30 mg/kg BID, 4 weeks; p <0.001
Text: Values larger than 100% indicate tumor regression.

[2] = 14-day daily oral repeated-dose DRF study in Beagle dogs (citrate salt); assay type: in vivo; details: for Cmax / Tmax / half-life: both sexes, Beagle, dog, plasma, po
Description: The objective of this dose-range-finding study was to select the dose levels for a potential subsequent toxicity study of Compound 1 by oral administration to Beagle dogs.
Compound 1 (citrate salt) administration in this study was intended once daily for up to 14 consecutive days by oral gavage to groups of naïve Beagle dogs (n=1/sex/group) at dose levels of 0.1, 0.3, 1, 3, 6, or 12 mg Compound 1 per kg bodyweight and day in 0.5% methylcellulose by using a staggered approach. The actual dose levels and durations of dosing were flexibly adapted according to PK and signs of tolerability. For TK evaluation blood samples were collected from each dog on Days 1 and 14 at pre-dose, 1, 2, 4, 8, 12, and 24 hours post-dose.

PR6511 = PR6511 mouse PDX prostate cancer model, daily oral; assay type: in vivo
Description: PR6511 represents a model which was not responsive any more to enzalutamide treatment. The dose in the 10 mg/kg group was reduced to 3 mg/kg from day 51 onwards. […] QD: once daily treatment. po: per os.
Due to weight loss, animals of the 10 mg/kg group received a reduced dose of 3 mg/kg on study days 51 to 57.

NCI-H69 = NCI-H69 small cell lung cancer CDX mouse model; details: for Tumor growth inhibition: p <0.001
Description: The 30 mg/kg group was given initially QW at 30 mg/kg and from day 31 onwards was given once weekly at 60 mg/kg, as indicated.
In Table 2, tumor growth inhibition (TGI) calculations are based on additional growth of tumors, i.e., tumor sizes on the day of TGI estimation minus tumor sizes at the start of treatment are used for calculations. Values larger than 100% indicate tumor regression. […] The total daily dose of 60 mg/kg was administered as *single dose or given as **30 mg/kg BID (twice daily).

[3] = 10 mg/kg (3 mg/kg on days 51-57) once daily

Compound: CC(C)C[C@@H]1NCCN([C@@H](CC(C)C)C(=O)N2CCC3(C[C@@H]2C)OCC(CN2CCCC2)CO3)C1=O (stereo partly drawn) [Compound 1, (S)-3-isobutyl-1-((S)-4-methyl-1-((S)-8-methyl-3-(pyrrolidin-1-ylmethyl)-1,5-dioxa-9-azaspiro[5.5]undecan-9-yl)-1-oxopentan-2-yl)piperazin-2-one]
- AR target gene expression (AR): effectively downregulates target genes
- cell cycle response (A549 NSCLC cells): arrested in G1-phase
- Total AUC (AUC(0-inf)) ([1]; 1.5 mg/kg, Day 1): 116 ng·h/mL
- Total AUC (AUC(0-inf)) ([1]; 1.5 mg/kg, Day 5): 213 ng·h/mL
- Total AUC ([1]; 2 mg/kg, Day 1): 173 ng·h/mL
- Total AUC ([1]; 2 mg/kg, Day 5): 270 ng·h/mL
- Tmax ([1]; 1.5 mg/kg): ~0.5 h
- Cmax ([1]; 1.5 mg/kg, Day 1): 25.4 ng/mL
- half-life ([1]; 1.5 mg/kg, Day 1, read-out: elimination half-life (converted)): 4.5 h
- Cmax ([1]; 1.5 mg/kg, Day 5): 44.6 ng/mL
- half-life ([1]; 1.5 mg/kg, Day 5, read-out: elimination half-life (converted)): 6.2 h
- Cmax ([1]; 2 mg/kg, Day 1): 33.6 ng/mL
- Tmax ([1]; 2 mg/kg, Day 1): ~0.4 h
- half-life ([1]; 2 mg/kg, Day 1, read-out: T1/2 (converted)): 4.7 h
- Cmax ([1]; 2 mg/kg, Day 5): 32.3 ng/mL
- Tmax ([1]; 2 mg/kg, Day 5): ~2.1 h
- half-life ([1]; 2 mg/kg, Day 5, read-out: T1/2 (converted)): 8.6 h
- tolerability ([1]; daily oral for 5 consecutive days at 1.5 mg/kg/day): well-tolerated
- Tumor growth inhibition (DU-145): 72 (<0.001)/**4 weeks %
- accumulation of drug exposure (Day 1 versus Day 14) ([2]; 0.1 mg/kg/day): no accumulation with time
- Total AUC(o-inf) ([2]; 0.1 mg/kg/day, Day 1): 5.6 ng·h/mL
- accumulation of drug exposure (Day 1 versus Day 14) ([2]; 0.3 mg/kg/day): slight increase over time
- Total AUC(o-inf) ([2]; 0.3 mg/kg/day, Day 1): 13.8 ng·h/mL
- Total AUC(o-inf) ([2]; 1 mg/kg/day, Day 1): 63.8 ng·h/mL
- Total AUC(o-inf) ([2]; 3 mg/kg/day, Day 1): 171.6 ng·h/mL
- Total AUC(o-inf) ([2]; 6 mg/kg/day, Day 1): 734.8 ng·h/mL
- Total AUC(o-inf) ([2]; 12 mg/kg/day, Day 1): 936.4 ng·h/mL
- Cmax ([2]; 0.1 mg/kg/day, Day 1, read-out: mean Cmax plasma levels): 0.6 ng/mL
- Cmax ([2]; 0.1 mg/kg/day, Day 14, read-out: group mean Cmax plasma levels): 0.4 ng/mL
- Cmax ([2]; 0.3 mg/kg/day, Day 1, read-out: mean Cmax plasma levels): 2.3 ng/mL
- Cmax ([2]; 0.3 mg/kg/day, Day 14, read-out: group mean Cmax plasma levels): 3.8 ng/mL
- Cmax ([2]; 1 mg/kg/day, Day 1, read-out: mean Cmax plasma levels): 8.6 ng/mL
- Cmax ([2]; 3 mg/kg/day, Day 1, read-out: mean Cmax plasma levels): 23.8 ng/mL
- Cmax ([2]; 6 mg/kg/day, Day 1, read-out: mean Cmax plasma levels): 114 ng/mL
- Cmax ([2]; 12 mg/kg/day, Day 1, read-out: mean Cmax plasma levels): 182 ng/mL
- Tmax ([2]; 0.1 and 0.3 mg/kg/day, Day 14): 1 h
- half-life ([2]; 0.1 and 0.3 mg/kg/day, Day 14, read-out: terminal elimination half-lives): 4.7 to 5.5 h
- Tmax ([2]; all doses, Day 1): 1 to 2 h
- half-life ([2]; all doses, Day 1, read-out: elimination half-life): 3.4 to 6.2 h
- tolerability ([2]; daily oral 0.1 and 0.3 mg/kg/day for 14 days and 1 mg/kg/day for 6 days): well-tolerated
- tolerability ([2]; daily oral 3, 6, and 12 mg/kg/day for 14 days): not well-tolerated
- complete responders (PR6511; 6 mg/kg once daily): 3/8
- partial responder (PR6511; 6 mg/kg once daily): 2/8
- tumor-free survivors (PR6511; 6 mg/kg once daily): 3/8
- complete responders (PR6511; [3]): 4/8
- partial responders (PR6511; [3]): 2/8
- tumor-free survivors (PR6511; [3]): 3/8
- tumor response (PR6511; 10 mg/kg for approx. 8-10 days, then breaks/3 mg/kg days 51-57): full tumor regressions
- tumor re-growth (PR6511; 3 weeks after end of treatment, fully regressed tumors): no re-growth of tumors
- tumor response (PR6511; 6 or 10 mg/kg daily oral, study days 38-57): substantial tumor regressions up to erradication of tumors
- PSA in blood (PR6511; PR6511): effective PSA reduction
- body weight (NCI-H69; 3 mg/kg oral daily continuous): slight body weight loss
- tumor response (NCI-H69; 3 mg/kg oral daily continuous): regressions of tumors
- tolerability (NCI-H69; 3 mg/kg oral every other week): well tolerated
- anti-tumor activity, every other week vs daily (NCI-H69; 3 mg/kg oral, every other week compared to same dose daily): almost the same anti-tumor growth activity
- anti-tumor activity, once weekly vs daily (NCI-H69; 30 mg/kg once every seven days, 60 mg/kg weeks 4 to 7, compared to 3 mg/kg daily): same anti-tumor growth activity
- body weight (NCI-H69; intermittent (once weekly) dosing): did not cause significant body weight decreases
- Tumor growth inhibition (NCI-H69; once weekly 15 mg/kg/day, 7 weeks): 58% (<0.001)/
- Tumor growth inhibition (NCI-H69; once weekly 30 mg/kg/day, 3 weeks): 76% (<0.001)/
- Tumor growth inhibition (NCI-H69; once weekly 60 mg/kg/day, 4 weeks, after 3 weeks at 30 mg/kg): 103% (<0.001)/
